{"source": "patent US20110318396A1", "about": "“DERMATOLOGICAL/COSMETIC COMPOSITIONS COMPRISING A RETINOID AND BENZOYL PEROXIDE” (Galderma Research & Development, priority 2006, published 2011)", "key": {"[1]": {"assay": "Chemical stability: assay of benzoyl peroxide by internal calibration in HPLC", "format": "physicochemical", "settings": "composition of Example 2 a)", "description": "Benzoyl Peroxide: Assay of the active by internal calibration in HPLC. At the starting time (T0) the composition is considered to contain 100% of benzoyl peroxide. Concentration of benzoyl peroxide measured in % relative to T0: […]"}, "[2]": {"settings": "in PEG 400 and ethanol; cited from earlier work"}, "[3]": {"settings": "cited from earlier work; for Degradation time: 40° C."}, "[4]": {"settings": "in presence of the formulation based on benzoyl peroxide, cited from earlier work; for Retinoid degraded: calculated"}, "[5]": {"assay": "Chemical stability: assay of adapalene by internal calibration in HPLC", "format": "physicochemical", "settings": "composition of Example 2 a); AT; T 3 months", "description": "Assay of the active by internal calibration in HPLC.\nAt the starting time (T0) the composition is considered to contain 100% of adapalene. Concentration of adapalene measured in % relative to T0: […]"}}, "note": "Where two headings read alike, the source gives them in different places.", "data": [{"smiles": "O=C(OOC(=O)c1ccccc1)c1ccccc1", "note": "[Benzoyl Peroxide, benzoyl peroxide]", "values": [{"measurement": "Concentration of benzoyl peroxide measured in % relative to T0", "setting": "[1]; 40° C., T 1 month", "result": 96.3, "unit": "%"}, {"measurement": "Concentration of benzoyl peroxide measured in % relative to T0", "setting": "[1]; 40° C., T 2 months", "result": 81.6, "unit": "%"}, {"measurement": "Concentration of benzoyl peroxide measured in % relative to T0", "setting": "[1]; 40° C., T 3 months", "result": 88.7, "unit": "%"}, {"measurement": "Concentration of benzoyl peroxide measured in % relative to T0", "setting": "[1]; AT, T 0", "result": 99.2, "unit": "%"}, {"measurement": "Concentration of benzoyl peroxide measured in % relative to T0", "setting": "[1]; AT, T 3 months", "result": 94.8, "unit": "%"}, {"measurement": "Solubility", "setting": "[2]", "result": "particularly soluble"}, {"measurement": "Degradation time", "setting": "[3]; in solution in PEG 400 (0.5 mg/g)", "result": 1.4, "unit": "days"}, {"measurement": "Degradation time", "setting": "[3]; in solution in ethanol", "result": 29, "unit": "days"}, {"measurement": "Degradation time", "setting": "[3]; in solution in propylene glycol", "result": 53, "unit": "days"}, {"measurement": "Degradation in suspension (dispersed form)", "setting": "[3]; in water and propylene glycol, kept for 90 days", "result": "not degraded"}]}, {"smiles": "CC1=C(/C=C/C(C)=C/C=C/C(C)=C/C(=O)O)C(C)(C)CCC1", "note": "[tretinoin]", "values": [{"measurement": "Retinoid degraded", "setting": "[4]; in 2 hours", "result": 50, "unit": "%"}, {"measurement": "Retinoid degraded", "setting": "[4]; in 24 hours", "result": 95, "unit": "%"}]}, {"smiles": "COc1ccc(-c2ccc3cc(C(=O)O)ccc3c2)cc1C12CC3CC(CC(C3)C1)C2", "note": "[Adapalene, 6-(3-(1-adamantyl)-4-methoxyphenyl)-2-naphthoic acid]", "values": [{"measurement": "Concentration of adapalene measured in % relative to T0", "setting": "[5]", "result": 97.7, "unit": "%"}, {"measurement": "Degradation of the retinoid", "setting": "[4]; over 24 hours", "result": "no degradation"}]}]}
